# Patent US10835611B2, “Neurotherapeutic nanoparticle compositions comprising leukemia inhibitory factor” (Yale University, priority 2012, dated 2020)
# B1: BDNF: brain-derived neurotrophic factor (protein, UniProt P23560 19-247, looked up)
# Neurotrophic factor BDNF …: APMKEANIRGQGGLAYPGVRTHGTLESVNGPKAGSRGLTSLADTFEHVIEELLDEDQKVRPNEENNKDADLYTSRVMLSSQVPLEPPLLFLLEEYKNYLDAANMSMRVRRHSDPARRGELSVCDSISEWVTAADKKTAVDMSGGTVTVLEKVPVSKGQLKQYFYETKCNPMGYTKEGCRGIDKRHWNSQCRTTQSYVRALTMDSKKRIGWRFIRIDTSCVCTLTIKRGR
# Tests used:
# [1] = system: primary rat E14 VM tissue; test: Anti-Thy-1 directed BDNF or 7,8-DHF nanoparticles versus free factor in primary rat E14 VM cultures; format: cell-based; details: 7 days in vitro
# Description: To compare the effect of brain-derived neurotrophic factor (BDNF), or the BDNF agonist 7,8-dihydroxy flavone (7,8-DHF), when in a nano-particulate formulation targeted to Thy-1, versus free, primary rat E14 VM tissue was mixed with 100 μl of nanoparticle solution (0.05 mg; 0.1 mg; 1.0 mg nanoparticles/ml), or with free growth factor (10 nM; 100 nM; 1 μM; 10 μM) immediately prior to plating. After first confirming presence of Thy-1 antigen on the surface of TH+ neurons (data not shown), anti-Thy-1 decorated nanoparticles were prepared as either empty; or BDNF-nanoparticles; or 7,8 DHF-nanoparticles. Cultures were fixed after 7 days in vitro and analysed via immunocytochemistry for tyrosine hydroxylase positive cells. […] This is shown for 7,8 DHF-nanoparticles in FIG. 11A and FIG. 11B where the dose-response curve is similar to that reported by Jang et al (Jang et al, Proc. Natl. Acad. Sci. USA, 2010), with the exception of the high dose (10 μM) decline observed here.
# [2] = system: dopaminergic neurons in E14 VM cultures; test: LIF treatment during dissociation of E14 VM tissue, TH+ neuron count in monolayer culture; format: cell-based, rat; details: tissue dissociated in 0.1 ng/ml LIF
# Description: The VM of E14 rat foetuses was dissected and dissociated in medium with or without 0.1 ng/ml soluble LIF. The tissue was then plated in monolayer culture and grown for 2, 3 or 5 days prior to fixing. Dissociated cells were seeded in monolayer cultures and fixed after 2, 3 or 5 days in vitro (DIV).
# [3] = system: dopaminergic neurons in E14 VM cultures; test: Growth medium supplemented with soluble LIF, TH+ neuron count in E14 VM cultures; format: cell-based, rat
# Description: The VM of E14 rat foetuses was dissected and dissociated in standard conditions. Primary E14 VM tissue was dissociated and grown as monolayer cultures. After plating cells were chronically treated with soluble LIF in their growth medium ranging from 0.1 ng/ml to 100 ng/ml.
# [4] = system: E14 VM neural progenitor cells; test: E14 VM neurosphere expansion with soluble LIF, subsequent differentiation in monolayer culture; format: cell-based, rat; details: 0.1 ng/ml LIF during neurosphere expansion; monolayer without LIF
# Description: To investigate the effect of LIF treatment on the differentiation of E14 VM, tissue was grown as neurospheres in expansion medium with or without 0.1 ng/ml soluble LIF. Primary ventral midbrain tissue was expanded in medium containing the mitogens EGF and FGF-2 for 5 days. These neurospheres were then dissociated into single cells and plated in monolayer culture in the absence of LIF. After 5 days of growth these cultures were analysed via immunocytochemistry for neural and astroglial differentiation (FIGS. 6A and 6B, showing morphology + or − LIF). The presence of LIF during the expansion of E14 VM had no effect on subsequent differentiation (FIG. 7 showing results after 5 and 10 days).
# [5] = system: dopaminergic neurons in E14 VM cultures; test: Dopaminergic apoptosis (TH, cleaved caspase-3, condensed nucleus) in E14 VM monolayer cultures; format: cell-based, rat
# Description: A subset of tyrosine hydroxylase neurons co-localised with cleaved caspase-3 and a condensed nucleus, both markers of apoptotic cells. […] Immunocytochemical analysis was performed to determine whether LIF treatment (soluble or targeted nanoparticles) decreased the number of apoptotic dopaminergic neurons in these cultures.
# E14 VM monolayer cultures, treated with soluble LIF or LIF/empty nanoparticles were fixed after 2, 3 or 5 days.
"number of tyrosine hydroxylase positive neurons ([3]; growth medium with 0.1 ng/ml LIF, 3 and 5 days in vitro)",Molecule,longest neurite length [1],number of primary neurites [1],serotonergic cells versus dopaminergic cells [1],number of TH+ neurons ([2]; 3 and 5 days in vitro),number of TH+ neurons ([2]; 2 days in vitro),number of TH positive neurons ([3]; all LIF dosages above 0.1 ng/ml (up to 100 ng/ml)),subsequent neural and astroglial differentiation [4],level of dopaminergic apoptosis ([5]; 2 days in vitro),dopaminergic apoptosis ([5]; 3 days in vitro)
,"O=c1cc(-c2ccccc2)oc2c(O)c(O)ccc12 [7,8-DHF, 7,8-dihydroxy flavone, reference compound]","neither soluble 7,8-DHF nor 7,8-DHF-nano altered","neither soluble 7,8-DHF nor 7,8-DHF-nano altered",constant ratio,,,,,,
significantly increase,"LIF: leukaemia inhibitory factor, member of the IL-6 family of cytokines, used soluble in medium",,,,effect was lost,significantly more,no significant effect,no effect,significant reduction,did not reach statistical significance
,B1,significant increase,significant increase,constant ratio,,,,,,
